Results taken from patent publication US5532231A, “Antibacterial agent” (priority 1994, dated 1996).
“Also recorded” adds a separate entry of the source.

How the values were obtained:
E. coli ESS = test: Antimicrobial spectrum, liquid media, viable cell count; type: cell-based, Escherichia coli; details: saturating concentrations
Method: (§1) Saturated solutions of TA and Focusin were prepared by adding 1.14 μg TA and 7 μg Focusin to 1 ml LB (final conc. of 1% ethanol). About 10^5 bacteria of various strains were then added. The control was bacteria in the same medium with no antibacterial agents. The bacteria were introduced at 37° C. with shaking at 100 rpm. When the control became turbid, viable cell count was performed on LB agar plates. Growth inhibition is presented as percentage of the no antibiotic control.

E. coli K-12 = test: as above; type: cell-based, Escherichia coli; details: saturating concentrations
Method: as §1

Staphylococcus aureas = test: as above; type: cell-based, Staphylococcus aureus; details: saturating concentrations
Method: as §1

Klebsiella pneumoniae = test: as above; type: cell-based; details: saturating concentrations; hospital strain
Method: as §1

Citrobacter diversus = test: as above; type: cell-based; details: saturating concentrations
Method: as §1

Providencia strautii = test: as above; type: cell-based; details: saturating concentrations
Method: as §1

Helicobacter pilori = test: as above; type: cell-based; details: saturating concentrations
Method: as §1

Staphylococcus albus = test: as above; type: cell-based
Method: as §1

Klebsiella sp = test: as above; type: cell-based; details: saturating concentrations; hospital strain
Method: as §1

Salmonella thyphimurium = test: as above; type: cell-based; details: saturating concentrations
Method: as §1

Pseudomonas aeruginosa = test: as above; type: cell-based; details: saturating concentrations
Method: as §1

Serratia marcescens = test: as above; type: cell-based; details: saturating concentrations
Method: as §1

Klebsiella Gr47 = test: as above; type: cell-based; details: saturating concentrations; hospital strain
Method: as §1

Proteus vulgaris = test: as above; type: cell-based; details: saturating concentrations
Method: as §1

E. coli ESS Kan^r = test: Sensitivity to combined exposure to light and air (remaining activity by paper disc bioassay); type: physicochemical, Escherichia coli
Method: Antibiotic activity against E. coli ESS Kan^r was determined by the paper disc filter assay (Leo et al., 1945). Unknown quantities of antibiotic TA or Focusin, dissolved in ethanol, saline or NB were applied to paper disc filters (6 mm diameter; Schleicher and Schull). After allowing the ethanol to evaporate in the hood for about 15 mins, the dry filters were placed on nutrient broth plates which had been overlaid with an overnight culture of E. coli ESS Kan^r as described above.
The diameter of the zone of inhibition was recorded after 18 hours in incubation at 37° C. The concentration of the antibacterial agents were determined from a standard inhibition curve prepared with known quantities of TA and Focusin.
100 ng of TA and Focusin dissolved in ethanol were applied to paper filters and allowed to dry in a hood for 15 mins. The filters were then exposed to light from a fluorescent lamp in the hood; the distance from the lamp to the filters was approximately 40 cm. The controls were placed in the dark under a plastic box within the hood.
After exposure of the filters to the light for varying periods of time, the remaining activity of the agents was measured by the paper disc bioassay and the results are shown in the following Table 1: […]

SMILES: CCCC1OC(=O)C(C)CC(C)CCCCC(=O)CCCC(CC)CCCC(COC)CCC(O)C(O)CC(O)CNC1=O (stereo not shown) [Focusin]
- killing (E. coli ESS): 100%
- killing (E. coli K-12): 100%
- killing (Staphylococcus aureas): 100%
- killing (Klebsiella pneumoniae): 96%
- killing (Citrobacter diversus): 100%
- killing (Providencia strautii): 100%
- killing (Helicobacter pilori): 100%
- incubation time after which the strain began to show sensitivity (Staphylococcus albus; saturating concentrations): > 46 h
- killing (Staphylococcus albus; saturating concentrations (Focusin), on the 46th hour): 73%
- killing (Klebsiella sp): 60%
- killing (Salmonella thyphimurium): 40%
- killing (Pseudomonas aeruginosa): 0%
- killing (Serratia marcescens): 67%
- killing (Klebsiella Gr47): 100%
- killing (Proteus vulgaris): 90%
- activity after exposure to light and air (E. coli ESS Kan^r; 0 hours): 100%
- activity after exposure to light and air (E. coli ESS Kan^r; 1 hour): 100%
- activity after exposure to light and air (E. coli ESS Kan^r; 4 hours): 100%
- activity after exposure to light and air (E. coli ESS Kan^r; 6 hours): 100%
- activity after exposure to light and air (E. coli ESS Kan^r; 8 hours): 100%
- activity after exposure to light and air (E. coli ESS Kan^r; 20 hours): 100%
- stability to exposure to light and air (in words) (E. coli ESS Kan^r; combined light and air, up to 20 hours): much more stable to exposure to light and air than the TA antibiotic; also recorded: completely resistant to breakdown
